Test results from PubChem BioAssay AID330 (DTP/NCI, 2004).
Several values for one entry are separate records, joined by “and”; a condition that tells them apart may be missing. Equal values may be shown once. Inconclusive results and toxic doses are left out. Peptide text beside a SMILES is read from it.

Test system: P388 leukemia ip, CD2F1 mice, survival T/C
Experiment: NCI In Vivo Anticancer Drug Screen. Data for tumor model P388 Leukemia (intraperitoneal) in CD2F1 (CDF1) mice
Conditions: endpoint: median survival time, higher = longer survival
Method in brief: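 Mice carrying the transplanted tumor received test compound or vehicle. Survival was recorded in each group, and the value is the treated-group measurement divided by that of the vehicle-treated control group.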

[1] = dose: 60.0 mg/kg/injection, schedule: Q01DX005 (ip), vehicle: saline with Tween-80
[2] = dose: 120.0 mg/kg/injection, schedule: Q01DX005 (ip), vehicle: saline with Tween-80
[3] = dose: 50.0 mg/kg/injection, schedule: Q01DX009 (ip), vehicle: saline with Tween-80
[4] = dose: 25.0 mg/kg/injection, schedule: Q01DX009 (ip), vehicle: saline with Tween-80
[5] = dose: 6.25 mg/kg/injection, schedule: Q01DX009 (ip), vehicle: saline with Tween-80
[6] = dose: 12.5 mg/kg/injection, schedule: Q01DX009 (ip), vehicle: saline with Tween-80

With `CC1=CC2OC34COC3CC(OC(=O)C(F)(F)F)C4(C)C2(C)CC1` (centres undefined) the T/C (dose: 24.0 mg/kg/injection, schedule: Q04DX003 (ip), vehicle: saline with Tween-80) was 120 % of control, the T/C (dose: 37.5 mg/kg/injection, schedule: Q04DX003 (ip), vehicle: saline with Tween-80) was 113 % of control and the T/C (dose: 55.0 mg/kg/injection, schedule: Q04DX003 (ip), vehicle: saline with Tween-80) was 112 % of control.

For `CCCCOC(=O)NC(=O)c1cc2cc(Cl)cc(Cl)c2oc1=O`, the T/C (dose: 50.0 mg/kg/injection, schedule: Q01DX005 (ip), vehicle: saline with Tween-80) was 90 % of control and the T/C (dose: 100.0 mg/kg/injection, schedule: Q01DX005 (ip), vehicle: saline with Tween-80) was 91 % of control.

For `Nc1cc2nnc(-c3ccccc3)c(-c3ccccc3)n2n1`, the T/C (dose: 25.0 mg/kg/injection, schedule: Q04DX002 (ip), vehicle: saline with Tween-80) was 91 % of control and the T/C (dose: 50.0 mg/kg/injection, schedule: Q04DX002 (ip), vehicle: saline with Tween-80) was 86 % of control.

For `FC(F)(F)C(F)(F)C(F)(F)C(F)(F)C(F)(F)C(F)(F)C[CH2][Sn]([Br])([Br])[CH2]CC(F)(F)C(F)(F)C(F)(F)C(F)(F)C(F)(F)C(F)(F)F`, the T/C [1] was 109 % of control, the T/C [2] was 105 % of control and the T/C (dose: 240.0 mg/kg/injection, schedule: Q01DX005 (ip), vehicle: saline with Tween-80) was 108 % of control.

With `CC(=O)OCC12CCC(C)=CC1OC1C(OS(C)(=O)=O)C(=O)C2(C)C12CO2` (centres undefined) the T/C (dose: 0.5 mg/kg/injection, schedule: Q01DX009 (ip), vehicle: saline) was 100 % of control, the T/C (dose: 1.0 mg/kg/injection, schedule: Q01DX009 (ip), vehicle: saline) was 103 % of control and the T/C (dose: 2.0 mg/kg/injection, schedule: Q01DX009 (ip), vehicle: saline) was 109 % of control. For the same compound, the T/C (dose: 4.0 mg/kg/injection, schedule: Q01DX009 (ip), vehicle: saline) was 110 % of control.

For `CC(C)(C)NC(=S)N/N=C/c1cc(Cl)cc(Cl)c1O`, the T/C [3] was 97 % of control and the T/C (dose: 200.0 mg/kg/injection, schedule: Q01DX009 (ip), vehicle: saline with Tween-80) was 98 % of control.

With `CC(C)CC(NC(=O)C(N)CC(=O)O)C(=O)O` (stereo not drawn) (H-Asp-Leu-OH; configuration not given here) the T/C (dose: 50.0 mg/kg/injection, schedule: Q01DX005 (ip), vehicle: Klucel (hydroxypropylcellulose) (HPC)) was 100 % of control, the T/C (dose: 100.0 mg/kg/injection, schedule: Q01DX005 (ip), vehicle: Klucel (hydroxypropylcellulose) (HPC)) was 98 % of control and the T/C (dose: 200.0 mg/kg/injection, schedule: Q01DX005 (ip), vehicle: Klucel (hydroxypropylcellulose) (HPC)) was 99 % of control.

`c1ccc(CCc2ccnc3c2ccc2ccccc23)cc1` was tested, and the T/C (dose: 25.0 mg/kg/injection, schedule: Q04DX003 (ip), vehicle: Klucel (hydroxypropylcellulose) (HPC)) was 112 % of control, the T/C (dose: 50.0 mg/kg/injection, schedule: Q04DX003 (ip), vehicle: Klucel (hydroxypropylcellulose) (HPC)) was 99 % of control and the T/C (dose: 100.0 mg/kg/injection, schedule: Q04DX003 (ip), vehicle: Klucel (hydroxypropylcellulose) (HPC)) was 99 % of control.

`N#CC(C#N)=Cc1ccc2c(c1)CCC2` was tested, and the T/C [4] was 90 % of control, the T/C [3] was 95 % of control and the T/C (dose: 100.0 mg/kg/injection, schedule: Q01DX009 (ip), vehicle: saline with Tween-80) was 109 % of control.

With `CCSc1ccc(N2C(N)=NC(N)=NC2(C)C)cc1` the T/C (dose: 6.25 mg/kg/injection, schedule: Q01DX005 (ip), vehicle: saline with Tween-80) was 103 % of control, the T/C (dose: 12.5 mg/kg/injection, schedule: Q01DX005 (ip), vehicle: saline with Tween-80) was 103 % of control and the T/C (dose: 25.0 mg/kg/injection, schedule: Q01DX005 (ip), vehicle: saline with Tween-80) was 118 % of control.

With `O=S(=O)(c1ccc(Cl)c(Cl)c1)N(c1cccc(C(F)(F)F)c1)S(=O)(=O)c1ccc(Cl)c(Cl)c1` the T/C [5] was 100 % of control, the T/C [6] was 94 % of control and the T/C [4] was 97 % of control.

For `O=C1C=CC2(CCC23C=CC(=O)O3)O1` (centres undefined), the T/C (dose: 10.0 mg/kg/injection, schedule: Q01DX009 (ip), vehicle: Klucel (hydroxypropylcellulose) (HPC)) was 98 % of control, the T/C (dose: 20.0 mg/kg/injection, schedule: Q01DX009 (ip), vehicle: Klucel (hydroxypropylcellulose) (HPC)) was 106 % of control and the T/C (dose: 40.0 mg/kg/injection, schedule: Q01DX009 (ip), vehicle: Klucel (hydroxypropylcellulose) (HPC)) was 106 % of control.

For `C=CCCn1ccnc1[N+](=O)[O-]`, the T/C (dose: 12.5 mg/kg/injection, schedule: Q01DX009 (ip), vehicle: water) was 94 % of control, the T/C (dose: 25.0 mg/kg/injection, schedule: Q01DX009 (ip), vehicle: water) was 93 % of control and the T/C (dose: 50.0 mg/kg/injection, schedule: Q01DX009 (ip), vehicle: water) was 100 % of control.

With `Cc1cc(C(=O)O)c(C)c2c1sc1ccccc12` the T/C [1] was 101 % of control and the T/C [2] was 114 % of control.

For `Oc1cc(CN2CCOCC2)c(O)cc1CN1CCOCC1`, the T/C (dose: 1.56 mg/kg/injection, schedule: Q01DX009 (ip), vehicle: saline with Tween-80) was 100 % of control, the T/C (dose: 3.13 mg/kg/injection, schedule: Q01DX009 (ip), vehicle: saline with Tween-80) was 119 % of control and 121 % of control and the T/C [5] was 113 % of control. For the same compound, the T/C [6] was 113 % of control and the T/C [4] was 117 % of control.
